# Data as given in patent publication US4663327A, “1-heteroaryl-4-aryl-pyrazolin-5-ones” (priority 1984, dated 1987).
# Experiments:
# Trichoderma viride = test: MIC on fungi in agar; details: 336 h
# Description: (§1) After storage for 2 weeks at 28° C. and 60 to 70% relative atmospheric humidity, the MIC is determined.
# Alternaria tenuis = test: MIC on fungi in agar; details: Alternaria alternata, 336 h
# Description: as §1
# Penicillium glaucum = test: MIC on fungi in agar; details: 336 h
# Description: as §1
# Chaetomium globosum = test: MIC on fungi in agar; details: 336 h
# Description: as §1
# Polyporus versicolor = test: MIC on fungi in agar; details: Trametes versicolor, 336 h
# Description: as §1
# Sclerophoma pityophila = test: MIC on fungi in agar; details: Sydowia polyspora, 336 h
# Description: as §1
# Aureobasidium pullulans = test: MIC on fungi in agar; details: 336 h
# Description: as §1
# Coniophora puteana = test: MIC on fungi in agar; details: 336 h
# Description: as §1
# Aspergillus niger = test: MIC on fungi in agar; details: 336 h
# Description: as §1
# Lentinus tigrinus = test: MIC on fungi in agar; details: 336 h
# Description: as §1
# Pyricularia oryzae = type: in vivo; details: rice, sprayed, disease infestation 4 days after inoculation
# Botrytis cinerea = test: Botrytis test (BEAN)/protective; type: in vivo; details: sprayed, infected spots on leaves evaluated 3 days after inoculation
# Description: Botrytis test (BEAN)/protective Solvent: 4.7 parts by weight of acetone Emulsifier: 0.3 parts by weight alkyl aryl polyglycol ether To produce a suitable preparation of active compound, 1 pat by weight of active compound is mixed with the stated amounts of solvent and emulsifier, and the concentrate is diluted with water to the desired concentration. To test for protective activity, young plants are sprayed with the preparation of active compound until dripping wet. After the spray coating has dried on, 2 small pieces of agar covered with Botrytis cinerea are placed on each leaf. The inoculated plants are placed in a darkened humidity chamber at 20° C. 3 days after the inoculation, the size of the infected spots on the leaves is evaluated.
SMILES,MIC (Trichoderma viride) [µg/mL],MIC (Alternaria tenuis) [µg/mL],MIC (Penicillium glaucum) [µg/mL],MIC (Chaetomium globosum) [µg/mL],MIC (Polyporus versicolor) [µg/mL],MIC (Sclerophoma pityophila) [µg/mL],MIC (Aureobasidium pullulans) [µg/mL],MIC (Coniophora puteana) [µg/mL],MIC (Aspergillus niger) [µg/mL],MIC (Lentinus tigrinus) [µg/mL],protective activity (Pyricularia oryzae),protective activity (Botrytis cinerea)
O=c1c(-c2ccccc2Br)c[nH]n1-c1ncccn1 [Example 86],35,20,50,1,2,10,20,5,10,2,–,–
O=c1c(-c2cc(C(F)(F)F)cc(C(F)(F)F)c2)c[nH]n1-c1ncccn1 [Example 104],–,–,–,–,–,–,–,–,–,–,clearly superior activity compared with the prior art,–
Cc1ccccc1-c1c[nH]n(-c2ncccn2)c1=O [Example 96],–,–,–,–,–,–,–,–,–,–,–,clearly superior activity compared with the prior art
O=c1c(-c2ccc(Cl)c(Cl)c2)c[nH]n1-c1ncccn1 [Example 89],–,–,–,–,–,–,–,–,–,–,–,clearly superior activity compared with the prior art
"O=c1c(-c2ccccc2)c[nH]n1-c1ncccn1 [Example 81, 1-pyrimid-2-yl-4-phenyl-pyrazolin-5-one]",75,75,50,3.5,2,7.5,50,0.5,10,5,–,–
O=c1c(-c2c(F)cccc2Cl)c[nH]n1-c1ccccn1 [Example 11],–,–,–,–,–,–,–,–,–,–,clearly superior activity compared with the prior art,clearly superior activity compared with the prior art
Cc1ccc(-c2c[nH]n(-c3cc(C)c4ccccc4n3)c2=O)cc1 [Example 68],–,–,–,–,–,–,–,–,–,–,clearly superior activity compared with the prior art,–
Cc1cc(-n2[nH]cc(-c3ccc(C(F)(F)F)cc3)c2=O)cc(C)n1 [Example 80],–,–,–,–,–,–,–,–,–,–,clearly superior activity compared with the prior art,–
O=c1c(-c2ccccc2Cl)c[nH]n1-c1ccccn1 [Example 7],–,–,–,–,–,–,–,–,–,–,clearly superior activity compared with the prior art,–
Cc1cc(-n2[nH]cc(-c3ccc(C(F)(F)F)cc3)c2=O)nc(C)n1 [Example 122],–,–,–,–,–,–,–,–,–,–,clearly superior activity compared with the prior art,–
O=c1c(-c2ccc(Cl)cc2Cl)c[nH]n1-c1ncccn1 [Example 88],–,–,–,–,–,–,–,–,–,–,–,clearly superior activity compared with the prior art
O=c1c(-c2c(F)cccc2Cl)c[nH]n1-c1ncccn1 [Example 87],–,–,–,–,–,–,–,–,–,–,–,clearly superior activity compared with the prior art
COc1ccc(-c2c[nH]n(-c3ncccn3)c2=O)cc1 [Example 91],200,100,10,20,20,15,150,5,50,100,–,–
O=c1c(-c2ccc(C(F)(F)F)cc2)c[nH]n1-c1ccccn1 [Example 25],–,–,–,–,–,–,–,–,–,–,clearly superior activity compared with the prior art,–
Cc1ccccc1-c1c[nH]n(-c2ncc(Cl)cn2)c1=O [Example 111],–,–,–,–,–,–,–,–,–,–,–,clearly superior activity compared with the prior art
O=c1c(-c2ccccc2Cl)c[nH]n1-c1ncccn1 [Example 84],35,50,20,1.5,35,10,20,2,10,50,clearly superior activity compared with the prior art,clearly superior activity compared with the prior art
COc1ccccc1-c1c[nH]n(-c2ncccn2)c1=O [Example 90],150,75,35,15,10,15,75,5,35,100,–,–
"O=c1c(-c2ccc(Cl)cc2)c[nH]n1-c1ncccn1 [Example 85, 1-pyrimid-2-yl-4-(4-chlorophenyl)-pyrazolin-5-one]",100,50,10,1,5,20,50,3.5,5,7.5,–,–
